Assay results published in patent US7566808B2, “Management of ophthalmologic disorders, including macular degeneration” (President and Fellows of Harvard College, priority 2004, dated 2009).

Key:
Sprague Dawley rats = conditions: reference [24]; cited from earlier work
purified bovine mRPE65 = molecular target: T1, purified bovine mRPE65 (Bos taurus, UniProt Q28175); assay: Fluorescence titration of mRPE65 with TDT and TDH; conditions: 0.952 μM mRPE65, phosphate buffered saline pH 7.4, 1% CHAPS; read-out: KD for binding to mRPE65
T1 construct: mRPE65 was extracted and purified from the bovine eye cups using a procedure described earlier; tissue W. L. Lawson Co; host or cells: bovine eye cups (retinal pigment epithelium)
T1 sequence (Q28175 whole entry): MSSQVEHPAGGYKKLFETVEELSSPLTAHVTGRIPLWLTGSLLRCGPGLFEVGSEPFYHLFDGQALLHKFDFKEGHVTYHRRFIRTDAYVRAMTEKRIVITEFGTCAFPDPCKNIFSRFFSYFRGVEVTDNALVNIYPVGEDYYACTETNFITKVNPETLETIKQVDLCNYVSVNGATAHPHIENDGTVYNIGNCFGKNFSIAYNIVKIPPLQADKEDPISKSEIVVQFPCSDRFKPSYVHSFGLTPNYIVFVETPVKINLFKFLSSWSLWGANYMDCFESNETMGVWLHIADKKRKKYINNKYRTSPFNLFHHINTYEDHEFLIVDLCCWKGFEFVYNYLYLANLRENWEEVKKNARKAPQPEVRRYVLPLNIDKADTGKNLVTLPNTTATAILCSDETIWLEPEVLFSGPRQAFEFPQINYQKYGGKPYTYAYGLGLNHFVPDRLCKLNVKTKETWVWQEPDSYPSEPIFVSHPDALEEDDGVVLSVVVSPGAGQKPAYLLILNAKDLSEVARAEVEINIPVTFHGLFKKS
Experimental: Purification of mRPE65: mRPE65 was extracted and purified from the bovine eye cups using a procedure described earlier. Protein purity was established by silver staining and Western blotting (1:4000 primary antibody—1 h at room temperature and 1:4000 secondary antibody 0.5 h at room temperature). Buffers were changed by dialysis in the request buffer overnight in a slide-a-lyser™ cassette from Pierce (10 KDa MWCO). RPE65 solutions were concentrated with an Amicon Ultra™ centrifugal filtration device (30 KDa-cutoff) from Millipore Corp. The final protein solution contained 100 mM phosphate buffered saline (150 mM NaCl) pH 7.4 and 1% CHAPSO. The protein concentration was measured by a modified Lowry method using the Bio-Rad DC protein assay protocol.
Fluorescence binding assays: RPE65 in PBS, 1% CHAPS, pH 7.4 was used in the fluorometric titration studies. All titrations were performed at 25° C. The samples in PBS buffer were excited at 280 nm and the fluorescence was scanned from 300 to 500 nm. Fluorescence measurements, using 450 μL quartz cuvettes with a 0.5 cm path length, were made at 25° C. on a Jobin Yvon Instruments, Fluoromax 2 employing the right-angle detection method.
The fluorescence of the protein solution was measured after equilibrating it at 25° C. for 10 min. […] The binding constant (KD) was calculated from the fluorescence intensity as described before (17,19). […]

Abca4−/− mice = assay: A2E accumulation after chronic treatment of Abca4−/− mice; type: in vivo; conditions: 50 mg/kg i.p. twice a week for 2 months
Experimental: Tissue extraction and HPLC analysis: Posterior eye cups were pooled and homogenized in PBS using a tissue grinder. An equal volume of a mixture of chloroform/methanol (2:1) was added and the sample was extracted three times. To remove insoluble material, extracts were filtered through cotton and passed through a reversed phase (C18 Sep-Pak, Millipore) cartridge with 0.1% TFA in methanol. After removing solvent by evaporation under gas, the extract was dissolved in methanol containing 0.1% TFA, for HPLC analysis. For quantification of A2E, a Waters Alliance 2695 HPLC was employed with a Atlantis® dC18 column (Waters, 4.6×150 mm, 3 μm) and the following gradient of acetonitrile in water (containing 0.1% trifluoroacetic acid): 90-100% (0-10 min), 100% acetonitrile (10-20 min), and a flow rate of 0.8 mL/min with monitoring at 430 nm. The injection volume was 10 μL. […] Levels of A2E and iso-A2E were determined by reference to an external standard of HPLC-purified A2E/iso-A2E. […]
As shown in FIGS. 29A-D, both compounds, but especially TDT, were highly efficient in lowering A2E accumulation. FIGS. 29A-D show quantitation of A2E and iso-A2E in eye cups of Abcr −/− mice. […] FIG>29D: A2E/iso-A2E quantitation from integrated peak areas normalized to external standards. Values expressed as picomoles per eye and are based on single samples obtained by pooling 4 eyes.

| Compound | inhibition of 11-cis-retinal regeneration after bleaching (literature) (Sprague Dawley rats) | Kd (purified bovine mRPE65) [nM] | effect on A2E accumulation (Abca4−/− mice) |
| --- | --- | --- | --- |
| CC1=C(/C=C/C(C)=C/C=C/C(C)=C\C(=O)O)C(C)(C)CCC1 [13-cis-retinoic acid, reference compound] | approximately 4 fold | – | – |
| CCCCCCCCCCCCCCCCNC(=O)/C=C(\C)CC/C=C(\C)CCC=C(C)C [TDH, 3,7,11-Trimethyl-dodeca-2,6,10-trienoic acid hexadecylamide] | – | 96 ± 14 | profound effects on limiting A2E accumulation |
| CCCCCCCCCCC(=O)/C=C(\C)CC/C=C(\C)CCC=C(C)C [TDT, 13,17,21-Trimethyl-docosa-12,16,20-trien-11-one] | – | 58 ± 5 | profound effects on limiting A2E accumulation |
